Assay [1] relates to mosquitoes. Put plainly: Limonene tested against mosquitoes (background). The note with it: background statement. The assay is classed as in vivo.
Assay [2] has as its system mosquitoes and biting midges. The note with it: related art; cited from earlier work.
Assay [3] concerns female mosquitoes (Aedes aegypti). Put plainly: Mosquitoes feeding test (Plexiglas module, treated membrane over dyed sucrose/ATP solution). The assay is classed as in vivo. To be noted: feeding relative to control, FIGS. 1 and 3. The method, then:
(§1) The test was conducted at 0900-2100 hours in a walk-in incubator (26° C., 63-80% RH) illuminated by fluorescent lights. Mosquitoes were tested in a two-piece Plexiglas module designed to assess their response to feeding deterrents. The bottom piece of the module was 40×7×4-cm hollow platform supporting six circular wells (diameter=3.8 cm, depth=6 mm). Water (40° C.) flowed through the central cavity of the platform at a rate of 215 ml/min. The top piece of the module consisted of six 4.5×4.0×5.0 cm chambers, the floors of which were fitted with a sliding door positioned over a circular opening 3.5 cm in diameter. Mosquitoes were introduced through an aperture 1 cm in diameter on the front wall of the chambers. For each test, five female mosquitoes (Aedes aegypti) were aspirated into each of five chambers of the top module piece and the apertures were plugged with corks wrapped in plastic film. The wells on the bottom piece of the module were filled with 7 ml of 10% sucrose solution containing ATP (2.9 mg/ml). To each well, 75 μl of green dye (McCormick Food, Hunt Valley, Md.) were added so that those mosquitoes imbibing the sugar solution could be identified when crushed at the end of the tests. Each membrane received 50 ul of acetone or experimental compound solution, applied to 9.6 cm^2 circular area on 0.1 mm-thick membranes made of nylon mesh in a silicone matrix. The membranes were then placed over each well in contact with the sugar solution.
(§2) The circular openings on the floor of each chamber of the top piece of the module were aligned with each membrane-covered well of the bottom piece. The sliding floors of the chambers were then opened allowing mosquitoes access to the membranes. The number of mosquitoes landing on the membranes, and those flying within the apparatus, were recorded each minute for five minutes. After five minutes, any mosquitoes remaining on the membranes were removed with a metal wire, and the door of the floor of each chamber was closed. The top piece of the module was then placed into a freezer for 20 minutes. In the test designed to assess feeding, mosquitoes were removed from the frozen module, crushed on white paper towels, and examined for the presence of green dye to indicate that feeding had occurred. The proportions of mosquitoes feeding per trial were analyzed using a standard generalized linear model with a logit link. Landing and flying scores are repeated measures; five reading were obtained for groups of five mosquitoes. Thus, to maintain independence among the data, the five readings were summed, and then the sums divided by 25 (the maximum score in each category) to create proportions of mosquitoes landing and flying. The proportions were then transferred using the standard variance stabilizing transformation for proportions (sin^−1 √y, where y is the proportion), and analyzed using ANOVA (Analysis of Variables)
In Table 1, weight percent (wt %) refers to the weight of the deterring/repelling/inhibiting compound, or combination of compounds, in the composition used in the tests. […] The weight ratio of the compounds in the combination of compounds is given in parentheses in the “Compound(s)” column of Table 1.

For assay [4] the test system is unchanged. In words: Mosquitoes flying test (Plexiglas module, mosquitoes flying within the apparatus). It is filed as in vivo. The note with it: flying relative to control, FIGS. 2 and 4. The procedure: as §1, §2
In Table 2, weight percent (wt %) refers to the weight of the deterring/repelling/inhibiting compound, or combination of compounds, in the composition used in the tests. […] The weight ratio of the compounds in the combination of compounds is given in parentheses in the “Compound(s)” column of Table 2.

Assay [5] concerns mosquitoes. In words: Spatial inhibition of mosquitoes, outdoor Mosquito Magnet Liberty Plus trap catch. To be noted: two grams of test compound on absorbent material in CO2 and r-octenol stream of trap; 2-5 days; FIG. 5. It is filed as in vivo. The procedure:
Two grams of test compound was absorbed onto pieces of absorbent material. These pieces of absorbent material (fragrance release material from Rhopore Inc.) containing absorbed test compound were then placed in a stream of CO2 and r-octenol being released from an American Biophysics Mosquito Magnet Liberty Plus mosquito trap designed to attract mosquitoes. The test were rotated over a period of 2-5 days in such a manner that both control (trap without test compound) and test compound were tested an equal number of times in each trap employed. The number of mosquitoes caught in the traps with test compounds was compared to the number of mosquitoes caught in the trap with no test compound material present. […] Thus, a lowered percentage is indicative of the increasing ability of the test compounds to inhibit the ability of the mosquitoes sense the target. […] In Table 3, weight percent (wt %) refers to the weight of the deterring/repelling/inhibiting compound, or combination of compounds, in the composition used in the tests. In the “Percent Caught Relative to Control” column in Table 3, a lower percentage is indicative of the increasing ability of the test compounds to inhibit the ability of the mosquitoes sense the target. The weight ratio of the compounds in the combination of compounds is given in parentheses in the “Compound(s)” column of Table 3.

With `C=C(C)C1CC=C(C)CC1` (stereo not drawn) [limonene], the “repellent or spatial inhibitor efficacy against mosquitoes, in words” value in assay [1] was “not found to be either an effective repellent or spatial inhibitor”.

For the compound `C=CC(C)(O)CCC=C(C)C` (stereo not drawn) [linalool], in assay [2], the “spatial inhibitor efficacy, in words” value is listed as “act as spatial inhibitors”.

As to (+)/(−) limonene oxide, the “contact mosquito repellent activity (feeding tests, FIGS. 1 and 3), in words” value in assay [3] is recorded as “especially effective as contact mosquito repellents”. Also, in assay [4], the “spatial inhibitor activity for mosquitoes (flying tests, FIGS. 2 and 4), in words” value is reported as “particularly effective as spatial inhibitors for mosquitoes”.

Regarding cis and trans carveol, the “contact mosquito repellent activity (feeding tests, FIGS. 1 and 3), in words” value in assay [3] is “especially effective as contact mosquito repellents”. In addition, in assay [5], the “percent mosquitoes caught relative to the control (relative catch)” value was “about 43%”.
